pIC50: −log10 of the molar value.
Assays:
NaV1.7 [1] = target: T1, NaV1.7 (Homo sapiens, UniProt Q15858); experiment: Automated patch clamp (Qube 384), internal block of NaV1.7 in HEK293 cells; type: cell-based; conditions: compound in internal solution, read-out: Nav1.7 Intracellular Inhibition (IC50)
T1 construct: expressed in transfected cells; tetracycline-inducible, kept under hygromycin and blasticidin
Description: (§1) NaV1.7 was expressed in HEK293 cells upon induction with tetracycline. Cells were cultured in DMEM containing 10% dialyzed Fetal Bovine Serum (VWR, Radnor, Pa.), 1% Glutamax (VWR, Radnor, Pa.), 1% Penicillin-Streptomycin (VWR, Radnor, Pa.), 100 mg/L Hygromycin (Thermo Fisher Scientific, Waltham, Mass. and 5 mg/L Blasticidin (Alfa Aesar, Haverhill, Mass.). Cells were grown and maintained at 37° C. in a humidified environment containing 10% CO2 in air. Cells were detached from the culture flask for passage and harvested using 0.05% Trypsin-EDTA (Thermo Fisher Scientific, Waltham, Mass.). To induce NaV1.7, cells were induced with tetracycline (0.1-1 μg/mL, IBI Scientific, Peosta, Iowa) the day before recording.
(§2) Before experiments, cells were washed with DPBS (VWR, Radnor, Pa.), digested with Detachin (VWR Radnor, Pa.) and then triturated 10 times in CHO Serum-Free Media (VWR Radnor, Pa.) to resuspend the cells and to break apart cell aggregates. Cells were counted and the final concentration was set at 2-5 million cells per mL.
(§3) The intracellular solution contained the following: 140 mM CsF, 1 mM/5 mM EGTA/CsOH, 10 mM HEPES, 10 mM NaCl, adjusted to pH 7.3 with CsOH, and osmolality to 320 with sucrose. The external solution contained the following: 145 mM NaCl, 4 mM KCl, 1 mM MgCl2, 2 mM CaCl2, 10 mM HEPES, 10 mM Glucose, adjusted to pH 7.4 with CsOH and osmolality to 305 with sucrose. All chemicals are from Sigma-Aldrich, St. Louis, Mo. In order to test the degree of internal block by test compounds, the compounds were dissolved in internal solution at the indicated test concentration. […] In order to test the degree of external block by test compounds the compounds were dissolved in external solution at the indicated test concentration.
(§4) Automated Patch Clamps were performed on Qube 384 (Sophion Bioscience, Woburn Mass.) with multihole Qchips at a temperature setting of 22 degrees. The whole cells configuration was formed with default Qube seal and break-in parameter. The membrane potential was held at −100 mV before the voltage protocol began. Two voltage protocols were followed.
(§5) Step 1: Cells were held at −100 mV with a depolarized pulse to −20 mV for 10 ms, the interval was set at 5 s. Currents were corrected by default leak subtraction from every pulse. The duration was set at 5 mins.
(§6) Step 2: Cells were held at −100 mV with a depolarized pulse to −20 mV for 10 ms. The frequency was 5 Hz. Currents were corrected by leak subtraction calculated before step 2. The duration was set at 4 mins.
After Step 2, the Qchip was removed from the recording chamber. The internal solution was changed with solutions containing test compounds. Qchips were held at −100 mV without pulsing after being replaced in the recording chamber. The total solution switching time was 8 minutes. After the internal solution exchange, Cells were recorded and step 2 for repeated for 10 minutes.
Data analysis was performed by Sophion Analyzer. Cells were filtered with minimum 50 MOhm seal resistance and minimum 5 nA starting current. The rundown of the currents was corrected with control cells (Non-Drug). The remaining was calculated by averaging last 3 points in the end of experiments. The base line was calculated as the average of last 3 points of Step 2. IC50 curves were plotted with DR-plots/Hill function (a dose-response plot with a Hill fit). Data analysis was performed by Sophion Analyzer.

NaV1.7 [2] = target: T1, NaV1.7; experiment: Whole cell patch clamp, internal block of NaV1.7 current (compound in internal solution); type: cell-based; conditions: % inhibition at 10 μM, compound applied internally, manual patch clamp; read-out: Nav1.7 Intracellular Inhibition
Description: Representative compounds of the invention were synthesized according to the described methods and tested for the ability to inhibit voltage-gated sodium channels.
as §1, with “expressed” for “expressed in HEK293 cells”, “recording and plated onto 24-well plates. Cells were washed with DPBS (VWR, Radnor, Pa.), trypsinized and then triturated five times in 10 mL of growth media to break apart cell aggregates. For one 24-well plate, 2 mL of cell suspension was mixed with 23 mL of fresh growth media and 0.1-1 μg/mL tetracycline added. 1 ml of mixed media with cells was then added to each well of a 24-well plate, with a 12 mm coverslip already placed in the bottom of the well. Cells were then incubated in 37° C. and 10% CO2 overnight.” for “recording.”
The intracellular solution contained the following (in mM) CsCl 135, NaCl 10, EGTA 10, HEPES 10, MgCl2 2, adjusted to pH 7.2 with CsOH. The external solution was a normal Ringer solution containing (in mM) NaCl 155, HEPES 10, glucose 10, KCl 3.5, CaCl2 1.5, MgCl2 1 adjusted to pH 7.4 with NaOH. CsCl is from Alfa Aesar, Haverhill, Mass. All other chemicals are from Sigma-Aldrich, St. Louis, Mo. In order to test the degree of internal block by test compounds the compounds were dissolved in internal solution at the indicated test concentration. […] In order to test the degree of external block by test compounds the compounds were dissolved in external solution at the indicated test concentration.
18-24 hours after cells were induced with tetracycline, coverslips were placed into a chamber filled with Normal Ringer solution at room temperature and the chamber placed on a microscope. Pipettes were pulled from borosilicate glass on a P97 puller (Sutter Instrument, Novato, Calif.) and polished with a MF-830 Microforge (Narishige International USA, Inc, Amityville, N.Y.) to have a resistance of 1.5-2.5 MΩ when filled with CsCl internal solution at room temperature. Healthy cells (those that are round and translucent with no visible blemishes) were chosen for seal formation. A seal was formed between the pipette and the cell, and a brief pulse of suction was used to “break in” and establish the whole-cell configuration. The membrane potential was held at −100 mV before the voltage protocol began. Only cells with series resistance between 1.5-5 MΩ were retained for analysis. The voltage protocol was as follows: Cells were held at −100 mV for 12 ms followed by a hyperpolarizing step to −105 mV for 12 ms to monitor the leak. Cells were then stepped back to −100 mV for 40 ms. Cells were then depolarized to −20 mV for 10 ms and then returned to −100 mV for 26 ms.
Once the recording was started, the voltage protocol was run at 30 second intervals for 5 minutes to get a stable baseline. This was followed by four 30-second periods of 5 Hz stimulation of the same voltage protocol separated by 1 minute of rest which was then followed by 0.33 Hz stimulation after the last train. Currents were recorded using PatchMaster software with Heka EPC10 (HEKA Electronics, Lambrecht, Germany). Only cells with inward current amplitudes at −20 mV between 400 pA and 4 nA were accepted. In addition, cells having leak currents greater than 10% of their current amplitudes were discarded. […]

NaV1.7 [3] = target: T1, NaV1.7; experiment: Automated patch clamp (Qube 384), external block of NaV1.7 in HEK293 cells; type: cell-based; conditions: compound in external solution, read-out: Nav1.7 Extracellular Inhibition (IC50)
Description: as §1, §2, §3, §4, §5, §6
After Step 2, the external solution was changed with solutions containing test compounds. Qchips were held at −100 mV without pulsing. The total solution switching time was 8 minutes. After the external solution exchange, cells were recorded using the same procedure as step 2 for 10 minutes.
Data analysis was performed by Sophion Analyzer. Data were corrected with control cells (Non-Drug). The IC50 data were plotted with DR-plots/Hill function (a dose-response plot with a Hill fit).

[4] = PAMPA membrane permeability assay; type: in vitro ADME; conditions: PAMPA permeability coefficient, GIT lipid, buffer pH 7.4, 4 hours incubation
Description: The PAMPA assay (pION, Inc., Woburn Mass.) was used to determine the ability of compounds of the invention to cross an artificial lipid membrane by passive diffusion. Test compounds were dissolved in DMSO (10 mM) and diluted 200-fold in buffer (pION Inc., pH 7.4) to provide 50 uM stock solutions. Buffer (150 μL) was added to a UV blank plate and stock solutions (150 μL) were transferred to a UV reference plate. The blank and reference spectrum were read using a spectrophotometer. Stock solutions (200 μL) were added to the donor plate of the PAMPA sandwich plate and an accept plate painted with GIT lipid (pION Inc, 5 μL) was placed on top. Buffer (200 μL) was added to the acceptor plate and the PAMPA sandwich plate was incubated for 4 hours. Aliquots (150 μL) from the acceptor plate were added to a UV plate and read as acceptor spectrum. Aliquots (150 μL) of the donor solutions were added to a UV analysis plate and read as donor spectrum. The permeability coefficient of test compounds was calculated using PAMPA Explorer™ software (version 3.5.0.4) based on the AUC of the reference plate, the donor plate, and the acceptor plate.

T1 sequence (Q15858 whole entry): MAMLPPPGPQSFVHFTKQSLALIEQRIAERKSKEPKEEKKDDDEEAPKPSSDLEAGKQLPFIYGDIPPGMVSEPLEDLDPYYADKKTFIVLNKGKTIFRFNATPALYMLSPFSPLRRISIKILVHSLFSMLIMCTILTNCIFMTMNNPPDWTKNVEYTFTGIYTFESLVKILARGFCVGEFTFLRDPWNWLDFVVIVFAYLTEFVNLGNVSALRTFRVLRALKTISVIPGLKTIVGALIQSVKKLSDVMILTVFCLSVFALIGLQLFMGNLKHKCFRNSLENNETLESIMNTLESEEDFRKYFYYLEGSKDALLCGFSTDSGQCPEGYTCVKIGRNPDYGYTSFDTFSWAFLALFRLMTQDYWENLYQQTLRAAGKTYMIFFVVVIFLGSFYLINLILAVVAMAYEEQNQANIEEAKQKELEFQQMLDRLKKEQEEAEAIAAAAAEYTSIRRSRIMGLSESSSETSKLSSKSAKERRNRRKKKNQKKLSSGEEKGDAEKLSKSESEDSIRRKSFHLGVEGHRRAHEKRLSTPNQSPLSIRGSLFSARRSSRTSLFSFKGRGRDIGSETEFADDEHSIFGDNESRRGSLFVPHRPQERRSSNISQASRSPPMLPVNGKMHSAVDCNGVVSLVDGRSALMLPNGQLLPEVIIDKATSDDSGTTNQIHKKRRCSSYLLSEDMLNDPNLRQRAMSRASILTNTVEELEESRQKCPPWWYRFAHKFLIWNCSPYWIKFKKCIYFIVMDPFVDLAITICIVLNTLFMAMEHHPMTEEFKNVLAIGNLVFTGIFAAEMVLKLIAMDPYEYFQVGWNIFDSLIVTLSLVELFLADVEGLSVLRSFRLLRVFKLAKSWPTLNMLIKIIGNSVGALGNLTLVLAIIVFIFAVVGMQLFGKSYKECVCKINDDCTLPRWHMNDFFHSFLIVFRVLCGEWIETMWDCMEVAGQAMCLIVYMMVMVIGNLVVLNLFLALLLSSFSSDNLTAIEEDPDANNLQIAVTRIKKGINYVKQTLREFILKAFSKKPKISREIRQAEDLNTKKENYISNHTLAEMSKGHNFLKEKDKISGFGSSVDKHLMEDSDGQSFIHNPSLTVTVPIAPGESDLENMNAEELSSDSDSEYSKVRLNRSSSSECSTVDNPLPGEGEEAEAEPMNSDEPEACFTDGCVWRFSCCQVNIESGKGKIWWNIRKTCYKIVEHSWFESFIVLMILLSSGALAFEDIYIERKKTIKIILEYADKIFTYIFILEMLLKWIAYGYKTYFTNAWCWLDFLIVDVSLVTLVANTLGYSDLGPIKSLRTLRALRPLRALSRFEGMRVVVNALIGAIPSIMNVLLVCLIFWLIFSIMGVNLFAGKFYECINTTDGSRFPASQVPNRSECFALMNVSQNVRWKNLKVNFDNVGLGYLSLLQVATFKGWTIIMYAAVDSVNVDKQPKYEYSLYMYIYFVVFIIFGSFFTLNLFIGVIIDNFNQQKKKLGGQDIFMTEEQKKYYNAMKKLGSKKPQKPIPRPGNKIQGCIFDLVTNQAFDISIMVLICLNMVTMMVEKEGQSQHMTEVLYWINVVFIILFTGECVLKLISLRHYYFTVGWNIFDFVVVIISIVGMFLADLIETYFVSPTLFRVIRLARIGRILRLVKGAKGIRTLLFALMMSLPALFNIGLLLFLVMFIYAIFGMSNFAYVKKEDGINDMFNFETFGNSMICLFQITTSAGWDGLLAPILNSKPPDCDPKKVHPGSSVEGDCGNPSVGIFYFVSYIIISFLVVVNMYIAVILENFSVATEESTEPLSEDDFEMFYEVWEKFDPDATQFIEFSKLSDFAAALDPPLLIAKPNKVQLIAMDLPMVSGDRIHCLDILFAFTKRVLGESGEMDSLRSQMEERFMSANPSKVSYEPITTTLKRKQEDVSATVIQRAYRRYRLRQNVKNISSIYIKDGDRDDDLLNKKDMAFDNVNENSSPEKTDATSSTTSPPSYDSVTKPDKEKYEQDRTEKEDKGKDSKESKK

Row | SMILES | pIC50 (NaV1.7 [1]) | inhibition at 10 µM (NaV1.7 [2]) [%] | pIC50 (NaV1.7 [3]) | PAMPA (10^−6 cm/s) [4]
1 | Cc1cccc(C)c1NC(=O)C[n+]1c2ccc(Cl)cc2cn1C [Compound 96] | 5.00 to 5.52 | 70 to 95 | 4.00 to 4.52 | –
2 | Cc1cccc(C)c1NC(=O)C[n+]1c(C)ccn1C [Compound 93] | 5.00 to 5.52 | – | < 4.00 | + (<0.1 10^−6 cm/s)
3 | Cc1cccc(C)c1NC(=O)C[n+]1cccc(N)c1 [Compound 49] | 5.00 to 5.52 | 70 to 95 | < 4.00 | –
4 | Cc1cccc(C)c1NC(=O)C[n+]1cccn1C1CC1 [Compound 68] | 5.52 to 6.00 | – | < 4.00 | + (<0.1 10^−6 cm/s)
5 | Cc1cccc(C)c1NC(=O)C[n+]1ccc(C)n1C(C)C [Compound 82] | 5.52 to 6.00 | – | < 4.00 | + (<0.1 10^−6 cm/s)
6 | CCCC(C(=O)Nc1c(C)cccc1C)[n+]1ccccc1 (centres unmarked) [Compound 107] | 5.00 to 5.52 | – | < 4.00 | + (<0.1 10^−6 cm/s)
7 | COc1cc(F)c[n+](CC(=O)Nc2c(C)cccc2C)c1 [Compound 78] | 5.52 to 6.00 | – | < 4.00 | + (<0.1 10^−6 cm/s)
8 | COc1cc(C#N)c[n+](CC(=O)Nc2c(C)cccc2C)c1 [Compound 97] | 4.52 to 5.00 | 70 to 95 | > 5.00 | –
9 | Cc1cccc(C)c1NC(=O)C[n+]1ccc(C(N)=O)c(C(F)(F)F)c1 [Compound 90] | 5.00 to 5.52 | – | < 4.00 | + (<0.1 10^−6 cm/s)
10 | CNC(=O)c1ccc[n+](CC(=O)Nc2c(C)cccc2C)c1 [Compound 40] | 5.52 to 6.00 | 70 to 95 | < 4.00 | –
11 | Cc1cccc(C)c1NC(=O)C[n+]1cccc(OCc2ccccc2)c1 [Compound 88] | 5.00 to 5.52 | – | < 4.00 | + (<0.1 10^−6 cm/s)
12 | Cc1cccc(C)c1NC(=O)C[n+]1cccn1CCC#N [Compound 70] | 4.52 to 5.00 | – | < 4.00 | + (<0.1 10^−6 cm/s)
13 | Cc1cccc(C)c1NC(=O)C[n+]1cc(F)ccc1-c1ccccc1 [Compound 79] | 5.52 to 6.00 | > 95 | 4.00 to 4.52 | –
14 | Cc1cccc(C)c1NC(=O)C[n+]1cccn1Cc1ccccc1 [Compound 92] | 5.52 to 6.00 | – | < 4.00 | + (<0.1 10^−6 cm/s)
15 | Cc1cccc(C)c1NC(=O)C[n+]1cccc(C(C)(C)C)c1 [Compound 32] | 5.52 to 6.00 | 70 to 95 | < 4.00 | –
16 | Cc1cccc(C)c1NC(=O)C[n+]1cccn1CC(C)C [Compound 27] | 5.52 to 6.00 | – | < 4.00 | –
17 | Cc1cccc(C)c1NC(=O)C[n+]1cccn1C1CCCCC1 [Compound 28] | > 6.00 | – | 4.00 to 4.52 | –
18 | Cc1cccc(C)c1NC(=O)C[n+]1cccc(C2CCCC2)c1 [Compound 21] | > 6.00 | – | > 5.00 | –
19 | Cc1cccc(C)c1NC(=O)C[n+]1c(C)cccc1C [Compound 6] | 5.52 to 6.00 | – | < 4.00 | –
20 | Cc1cccc(C)c1NC(=O)C[n+]1cc(F)c2ccccc2c1 [Compound 67] | 5.00 to 5.52 | 40 to 70 | > 5.00 | –
